Patent publication US12310975B2, “Modulators of BCL6 proteolysis and associated methods of use” (Arvinas Operations, Inc., priority 2019, dated 2025)
Where two headings read alike, the source gives them in different places.

Target: BCL6 (Homo sapiens (Human), UniProt P41182)
Test: Immunofluorescence high content imaging of BCL6 degradation in T47D cells
Assay type: cell-based
Settings: for DC50: class symbols A-D, read-out: EC50 (nM)*
Experimental: Immunofluorescence Protocol for High Cotent Imaging of BCL6
T47D cells were seeded in 100 μl volume of RPMI1640-10% FBS in a 96-well black/clear bottom plates for adherent lines (Corning #3904).
Day 1. T47D breast cancer epithelial cells were seeded at a density so that confluence is ˜70-90% at endpoint. Cells were seeded at 7K/0.1 ml/well the morning prior to the addition of exemplary bifunctional degradation compounds.
Day 2. Prepare an 11 point 3-fold serial dilution of exemplary bifunctional compound in DMSO and aliquot an appropriate volume to cell growth media to generate a 2× final concentration of exemplary bifunctional compound. Add an equal volume (0.1 ml) of 2× exemplary bifunctional compound/media mix to previously plated cells, for a final top concentration in aqueous cell growth media of 0.1 or 1 μM. Incubate for 3 days at 37° C., 5% CO2.
Day 5 Immunofluorescence. Discard cell media. Wash wells with 200 μl of room temperature phosphate-buffered saline (PBS). Prepared 4% paraformaldehyde (PFA) from 16% PFA (Electron Microscopy Sciences #15710) using 1×PBS. Fifty μl of 4% PF was added to each well and incubate for 15 minutes at room temperature to fix the cells. The PFA was aspirated and the cells washed twice with PBS (200 μl)).
Prepared 0.1% Triton X-100 in PBS using 10% triton X-100 stock. The cells were permeabilized by adding 100 ul of the 0.1% Triton X-100 in PBS to each well to permeabilize cells and incubating at room temperature for 15 minutes. Cells were washed twice with PBS.
Prepared 3% BSA/PBS (from Thermofisher #37515 Blocker BSA in TBS, 10%), and 100 ul was added to each well. The cells were incubated for at least 1 hour at room temperature.
Prepared 1% BSA/PBS using Blocker BSA/PBS, and the 3% BSA/PBS removed from the wells.
For no primary antibody controls, 50 μl 1% BSA/PBS was added.
Primary antibody (BCL6 Rb Ab, CST-14895, Cell Signaling) was diluted 1:300 in 1% BSA/PBS using Blocker BSA/PBS.
Fifty μl of primary antibody added to all remaining wells (i.e., all wells other than the primary antibody controls) and the cells were incubated overnight at 4° C. with slow orbital movement.
Day 6. Contents of the wells was removed and the cells washed four times with 200 ul PBS. 1% BSA/PBS was prepared using Blocker BSA in PBS.
Diluted secondary antibody goat anti-Rb IgG Alexa-488 1:1000, and cell mask-Alexa-647 1:3000 in 1% BSA/PBS in the same mix. Add 50 μl to each well and incubate at room temperature for 1 hour in the dark.
Cells were washed three times with 200 ul PBS, and then incubated for 10 minutes with 100 ul Hoechst dye at 1 μg/mL (20 mM stock) to stain cell nuclei. Wells were then washed with 200 μl PBS, and 100 ul of PBS was added to each well and the plate covered plate with a plastic opaque cover. Plates were stored at 4° C. and covered in aluminum foil until imaged.
Plates were equilibrated to room temperature prior to reading. The bottom of the plate was wiped with 70% isopropanol immediately prior to imaging.
10×, 4 fields/well, include Top hat smoothing in the analysis protocol.

Row | SMILES | IC50 [nM] | Dmax (T47D) [%] | Dmax (T47D cells) [%] | IC50 (T47D cells) [nM] | DC50 [nM]
1 | CNC(=O)COc1cc2cc(Nc3nc(N4CCN(CC5CCN(c6ccc7c(c6)C(=O)N(C6CCC(=O)NC6=O)C7=O)CC5)CC4)ncc3Cl)ccc2n(C(C)C)c1=O (centres unmarked) [Exemplary Compound 263, 2-[[6-([5-chloro-2-[4-([1-[2-(2,6-dioxopiperidin-3-yl)-1,3-dioxoisoindol-5-yl]piperidin-4-yl]methyl)piperazin-1-yl]pyrimidin-4-yl]amino)-1-isopropyl-2-oxoquinolin-3-yl]oxy]-N-methylacetamide] | 10 to 50 | 50 to 70 |  |  | 
2 | CNC(=O)COc1cc2cc(Nc3nc(N4CCC(F)(CN5CCN(c6cccc7c6C(=O)N(C6CCC(=O)NC6=O)C7=O)CC5)CC4)ncc3Cl)ccc2n(C)c1=O (centres unmarked) [compound 342, 2-{[6-({5-chloro-2-[4-({4-[2-(2,6-dioxopiperidin-3-yl)-1,3-dioxo-2,3-dihydro-1H-isoindol-4-yl]piperazin-1-yl}methyl)-4-fluoropiperidin-1-yl]pyrimidin-4-yl}amino)-1-methyl-2-oxo-1,2-dihydroquinolin-3-yl]oxy}-N-methylacetamide] |  |  | 50 to 70 | < 10 | 
3 | CNC(=O)COc1cc2cc(Nc3nc(N4CCN(CC5CCN(c6cccc(C(=O)NC7CCC(=O)NC7=O)c6)CC5)CC4)ncc3Cl)ccc2n(C)c1=O (centres unmarked) [compound 319, 3-[4-({4-[5-chloro-4-({1-methyl-3-[(methylcarbamoyl)methoxy]-2-oxo-1,2-dihydroquinolin-6-yl}amino)pyrimidin-2-yl]piperazin-1-yl}methyl)piperidin-1-yl]-N-(2,6-dioxopiperidin-3-yl)benzamide] |  |  | < 50 | 50 to 100 | 
4 | CNC(=O)COc1cc2cc(Nc3nc(N4CCC(OCCOc5cc(-c6scnc6C)ccc5CNC(=O)[C@@H]5C[C@@H](O)CN5C(=O)C(c5cc(C)no5)C(C)C)CC4)ncc3Cl)ccc2n(C)c1=O (stereo partly drawn) [compound 56, (2S,4R)—N-(2-(2-((1-(5-chloro-4-((1-methyl-3-(2-(methylamino)-2-oxoethoxy)-2-oxo-1,2-dihydroquinolin-6-yl)amino)pyrimidin-2-yl)piperidin-4-yl)oxy)ethoxy)-4-(4-methylthiazol-5-yl)benzyl)-4-hydroxy-1-(3-methyl-2-(3-methylisoxazol-5-yl)butanoyl)pyrrolidine-2-carboxamide] |  |  |  |  | > 100
5 | Cn1c(=O)c(N2CCC2=O)cc2cc(Nc3nc(N4CCN(CC5CCN(c6ccc7c(c6)C(=O)N(C6CCC(=O)NC6=O)C7=O)CC5)CC4)ncc3Cl)ccc21 (centres unmarked) [compound 249, 5-(4-((4-(5-chloro-4-((1-methyl-2-oxo-3-(2-oxoazetidin-1-yl)-1,2-dihydroquinolin-6-yl)amino)pyrimidin-2-yl)piperazin-1-yl)methyl)piperidin-1-yl)-2-(2,6-dioxopiperidin-3-yl)isoindoline-1,3-dione] | ≥ 100 |  |  |  | 
6 | CNC(=O)COc1cc2cc(Nc3nc(N4CCC(OC5CC6(C5)CN(c5cccc(C(=O)NC7CCC(=O)NC7=O)c5F)C6)CC4)ncc3Cl)ccc2n(C(C)C)c1=O (centres unmarked) [compound 430, 3-[6-({1-[5-chloro-4-({3-[(methylcarbamoyl)methoxy]-2-oxo-1-(propan-2-yl)-1,2-dihydroquinolin-6-yl}amino)pyrimidin-2-yl]piperidin-4-yl}oxy)-2-azaspiro[3.3]heptan-2-yl]-N-(2,6-dioxopiperidin-3-yl)-2-fluorobenzamide] |  |  | 50 to 70 | 10 to 50 | 
7 | CNC(=O)COc1cc2cc(Nc3nc(N4CCC(OC5CC6(C5)CN(c5ccc7c(c5)C(=O)N(C5CCC(=O)NC5=O)C7=O)C6)CC4)ncc3Cl)ccc2n(C(C)C)c1=O (centres unmarked) [compound 362, 2-{[6-({5-chloro-2-[4-({2-[2-(2,6-dioxopiperidin-3-yl)-1,3-dioxo-2,3-dihydro-1H-isoindol-5-yl]-2-azaspiro[3.3]heptan-6-yl}oxy)piperidin-1-yl]pyrimidin-4-yl}amino)-2-oxo-1-(propan-2-yl)-1,2-dihydroquinolin-3-yl]oxy}-N-methylacetamide] |  |  | 50 to 70 | < 10 | 
8 | CNC(=O)COc1cc2cc(Nc3nc(N4CCC[C@H](COc5cccc6c5C(=O)N(C5CCC(=O)NC5=O)C6=O)C4)ncc3Cl)ccc2n(C2CCCCC2)c1=O (stereo partly drawn) [compound 343, 2-{[6-({5-chloro-2-[(3S)-3-({[2-(2,6-dioxopiperidin-3-yl)-1,3-dioxo-2,3-dihydro-1H-isoindol-4-yl]oxy}methyl)piperidin-1-yl]pyrimidin-4-yl}amino)-1-cyclohexyl-2-oxo-1,2-dihydroquinolin-3-yl]oxy}-N-methylacetamide] |  |  | 50 to 70 | < 10 | 
9 | CCn1c(=O)c(OCC(=O)NC)cc2cc(Nc3nc(N4CCN(CC5CCN(c6ccc(C(=O)NC7CCC(=O)NC7=O)c(OC)c6)CC5)CC4)ncc3Cl)ccc21 (centres unmarked) [compound 375, 4-[4-({4-[5-chloro-4-({1-ethyl-3-[(methylcarbamoyl)methoxy]-2-oxo-1,2-dihydroquinolin-6-yl}amino)pyrimidin-2-yl]piperazin-1-yl}methyl)piperidin-1-yl]-N-(2,6-dioxopiperidin-3-yl)-2-methoxybenzamide] |  |  | 50 to 70 | < 10 | 
10 | CNC(=O)COc1cc2cc(Nc3nc(N4CCN(CC5CCN(c6cccc(C(=O)NC7CCC(=O)NC7=O)c6F)CC5)CC4)ncc3Cl)ccc2n(C(C)C)c1=O (centres unmarked) [compound 296, 3-[4-({4-[5-chloro-4-({3-[(methylcarbamoyl)methoxy]-2-oxo-1-(propan-2-yl)-1,2-dihydroquinolin-6-yl}amino)pyrimidin-2-yl]piperazin-1-yl}methyl)piperidin-1-yl]-N-(2,6-dioxopiperidin-3-yl)-2-fluorobenzamide] | < 10 | ≥ 70 |  |  | 
11 | CNC(=O)COc1cc2cc(Nc3nc(N4CCC(CN5[C@H](C)CN(c6cccc7c6C(=O)N(C6CCC(=O)NC6=O)C7=O)C[C@@H]5C)CC4)ncc3Cl)ccc2n(C(C)C)c1=O (mixture of isomers) [compound 381, rac-2-[(6-{[5-chloro-2-(4-{[(2R,6S)-4-[2-(2,6-dioxopiperidin-3-yl)-1,3-dioxo-2,3-dihydro-1H-isoindol-4-yl]-2,6-dimethylpiperazin-1-yl]methyl}piperidin-1-yl)pyrimidin-4-yl]amino}-2-oxo-1-(propan-2-yl)-1,2-dihydroquinolin-3-yl)oxy]-N-methylacetamide] |  |  | 50 to 70 | < 10 | 
12 | CNC(=O)COc1cc2cc(Nc3nc(N4CCC(OCc5cccc(COCCOCCOCCOc6ccc7c(c6)CN(C6CCC(=O)NC6=O)C7=O)c5)CC4)ncc3Cl)ccc2n(C)c1=O (centres unmarked) [compound 97, 2-((6-((5-chloro-2-(4-((3-((2-(2-(2-((2-(2,6-dioxopiperidin-3-yl)-1-oxoisoindolin-5-yl)oxy)ethoxy)ethoxy)ethoxy)methyl)benzyl)oxy)piperidin-1-yl)pyrimidin-4-yl)amino)-1-methyl-2-oxo-1,2-dihydroquinolin-3-yl)oxy)-N-methylacetamide] |  |  |  |  | 50 to 100
13 | CNC(=O)COc1cc2cc(Nc3nc(N4CCN(CC5CCN(c6cccc7c6CN(C6CCC(=O)NC6=O)C7=O)CC5)CC4)ncc3Cl)ccc2n(C(C)C)c1=O (centres unmarked) [compound 423, 2-{[6-({5-chloro-2-[4-({1-[2-(2,6-dioxopiperidin-3-yl)-1-oxo-2,3-dihydro-1H-isoindol-4-yl]piperidin-4-yl}methyl)piperazin-1-yl]pyrimidin-4-yl}amino)-2-oxo-1-(propan-2-yl)-1,2-dihydroquinolin-3-yl]oxy}-N-methylacetamide] |  |  | ≥ 70 | < 10 | 
